Assays:
taq polymerase = target: T1, taq polymerase (Thermus aquaticus, UniProt P19821); assay: AZT included in the PCR reaction mixture in place of dT (TaqMan PCR step); type: biochemical
T1 construct: purchased Perkin Elmer PE 4304437
Source text: Next, an aliquot of the cDNA formed in the RT step above is brought into the Taqman® instrument (PE Model 7700) and put into a reaction mixture which contains Taqman® Universal master mix (taq polymerase in buffer), beta actin-specific forward primer, beta actin-specific reverse primer, and beta actin Taqman® probe. The PCR step takes place in the instrument under standard Taqman® PCR conditions. Although, as described above, the present method is depicted as a two test tube reaction, one skilled in the art will realize that these steps can be combined in a single reaction vessel.
The transcriptase reaction was initiated by placing the reaction mixture in a MWG Thermocycler, or equivalent, under thermocycling conditions at 25° C. for 10 minutes, then at 37° C. for 60 minutes, and finally at 95° C. for 5 minutes. This final thermocycling step deactivated the rHIV RT. Next 5 μL of the post-thermocycle RT reaction mixture, which presumably contained cDNA, were added to 45 μL of the Master Mix solution. The Master Mix Solution contained 25 μL 2×Taqman Universal Master Mix, 5 μL beta Actin Forward Primer, 5 μL Beta Actin Reverse Primer and […]. Thus, the total PCR reaction mixture contained 50 μL. […]

rHIV RT = target: T2, rHIV RT (Human immunodeficiency virus type 1 group M subtype B, UniProt P03366); assay: TaqMan real-time RT-PCR assay of rHIV RT inhibition by a test agent; type: biochemical, HIV
T2 construct: rHIV RT—Worthington Biochemical catalogue No. 5006 (500 U at 12.5 U/μL); purchased Worthington Biochemical 5006
Procedure: In this regard, oligo dT is used as a template for rHIV RT. Oligo dT is complementary to the polyadenylated RNA-component of the total human heart RNA which present in the reaction mixture. rHIV RT forms cDNA from the oligo dT/RNA complex in the presence of dNTP nucleotides.
Thus, the temperature cycling conditions for rHIV RT were about 25° C. for 10 minutes, followed by about 37° C. for 60 minutes, and finally 95° C. for 5 minutes. At 95° C., the activity of rHIV RT was destroyed.
In this context, the test agent preferably is added when the template RNA, the primer which is complementary to the template RNA, and the dNTPs are mixed in the presence of the sample. Accordingly, although the sample may contain active RT, cDNA transcription by the RT can be inhibited by the presence of the test agent in the reaction mixture.
The inhibiting properties of the test agent are reflected in an increase in CT value for the sample which contains the test agent.
An rHIV RT solution (Master Mix solution)was prepared which contained 5 μL 10× RT reaction buffer, 11 μL 25 mM MgCl2, 10 μL 10 mM dNTP working stock solution, 2.5 μL 50 μM oligo dT, 1 μL RNAse inhibitor and 1.25 μL rHIV RT. The total volume of the Master Mix solution was 30.75 μL.
were added to 30.75 μL of the Master Mix solution. Thus, the reaction mixture contained 50 μL total solution volume.
The controls for the present example included a positive control containing 18.25 μL water plus 1 μL RNA, and a negative control containing 19.25 μL water. […]

[1] = AZT 1.25 mM down to 250 μM in RT reaction mixture with a fixed concentration of dT, all concentrations

T1 sequence (P19821 whole entry): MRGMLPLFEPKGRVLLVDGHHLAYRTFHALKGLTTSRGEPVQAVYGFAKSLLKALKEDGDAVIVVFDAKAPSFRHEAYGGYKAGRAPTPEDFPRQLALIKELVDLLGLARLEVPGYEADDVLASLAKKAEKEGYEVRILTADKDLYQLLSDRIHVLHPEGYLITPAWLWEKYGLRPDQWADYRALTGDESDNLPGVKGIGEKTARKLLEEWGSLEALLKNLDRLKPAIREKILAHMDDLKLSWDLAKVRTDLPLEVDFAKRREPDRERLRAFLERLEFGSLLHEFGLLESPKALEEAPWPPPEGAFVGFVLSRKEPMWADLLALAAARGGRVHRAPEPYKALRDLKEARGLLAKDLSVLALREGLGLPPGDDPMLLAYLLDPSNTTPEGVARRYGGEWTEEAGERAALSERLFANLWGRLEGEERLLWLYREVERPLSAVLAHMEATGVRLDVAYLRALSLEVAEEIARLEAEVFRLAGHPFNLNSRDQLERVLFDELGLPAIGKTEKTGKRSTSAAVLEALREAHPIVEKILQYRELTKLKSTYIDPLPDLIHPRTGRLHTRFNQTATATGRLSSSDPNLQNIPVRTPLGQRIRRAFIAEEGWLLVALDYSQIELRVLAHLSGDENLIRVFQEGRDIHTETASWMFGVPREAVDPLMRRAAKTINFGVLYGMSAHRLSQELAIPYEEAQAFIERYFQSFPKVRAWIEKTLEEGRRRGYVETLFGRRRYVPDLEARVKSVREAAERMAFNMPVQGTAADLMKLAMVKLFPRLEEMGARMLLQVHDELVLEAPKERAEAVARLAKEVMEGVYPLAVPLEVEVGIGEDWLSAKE

Compound: Cc1cn([C@H]2C[C@H](N=[N+]=[N-])[C@@H](CO)O2)c(=O)[nH]c1=O [AZT]
- amplification of the cDNA after the PCR step (taq polymerase): NO amplification
- amplification of cDNA after the PCR step (rHIV RT; AZT 250 μM to 1.25 mM added to the rHIV-RT reaction mixture in place of dT): no amplification of cDNA was observed
- inhibition of activity (rHIV RT; [1]): 100%
- observed CT (rHIV RT; [1]): greater than 40 cycles

Source: US6664065B2, “Measuring viral reverse transcriptase activity” (priority 2000, dated 2003)
